Results on four molecules are retold here after US20090156569A1, “ORAL CONTRACEPTIVE SPRAY” (N.V. Organon, priority 2007, published 2009).

Converted amounts (≈) assume the structure as drawn. Read-outs that look alike come from different tables or passages of the source. Where only a bound is given, the exact number is not on record here.

As a reminder, the solubility is how much of the substance goes into solution per volume.

For series [1] the following is noted: exposure of etonogestrel after oral ingestion as its prodrug desogestrel; cited from earlier work.
The nature of series [2]: Cross-over pharmacokinetic study: sublingual oral spray (75 μg etonogestrel) versus ingested Cerazette tablet. In kind it is in vivo, human. The note with it: oral mucosal administration of etonogestrel; FIGS. 6 and 7. As to the method: Sixteen healthy female subjects were treated with 0.1 ml of oral spray comprising the liquid as depicted in table 6 to administer 75 μg etonogestrel, or with Cerazette® tablets (75 μg desogestrel) in a cross over design. The spray has been administered sublingually. Cerazette® has been ingested. Serum concentration versus time profiles were obtained for etonogestrel.
This leads to the conclusion that a lower dose of either etonogestrel is possible for oral mucosal administration to achieve a similar pharmacological effect.

Series [3] can be described thus: Solubility of the active ingredients in liquid solutions (Liquids 1-5). In kind it is physicochemical. The note with it: for solubility: aqueous with cosolvent or surfactant or cyclodextrin. As to the method:
Solutions were prepared essentially according to the procedure as described in Example 1. The solubility of each one of the active ingredients desogestrel, 3-β-hydroxydesogestrel, 3-keto desogestrel and ethinyl estradiol in these solutions was tested.

Details of series [4]: species or system human. The note with it: in vivo. As to the method: Sixteen healthy female subjects were treated with 0.1 ml of the oral spray as described in Example 1 or with Marvelon® tablets (150 μg desogestrel, 30 μg ethinyl estradiol) in a cross over design. The spray was administered sublingually. Marvelon® was ingested. Serum concentration versus time profiles were obtained for etonogestrel and plasma concentration versus time profiles were obtained for ethinyl estradiol. FIGS. 2, 3, 4 and 5 show the average values of the serum/plasma concentrations versus time profiles.
This leads to the conclusion that a lower dose of either etonogestrel, or ethinyl estradiol, or both is possible for oral mucosal administration.

Where [5] appears, read: Liquid 1: water 25, ethanol 20, glycerol 25, propylene glycol 25, polysorbate 80 5 % v/v, read-out: Solubility in Liquid 1.
Where [6] appears, read: Liquid 2: water 25, ethanol 25, glycerol 20, propylene glycol 25, polysorbate 80 5 % v/v, read-out: Solubility in Liquid 2.
Setting [7] is: Liquid 3: water 25, ethanol 30, glycerol 15, propylene glycol 25, polysorbate 80 5 % v/v, read-out: Solubility in Liquid 3.
[8] abbreviates: Liquid 4: water 25, ethanol 25, glycerol 25, propylene glycol 25, polysorbate 80 0 % v/v, read-out: Solubility in Liquid 4.
The mark [9] stands for this setting: Liquid 5: water 30, ethanol 30, glycerol 25, propylene glycol 15, polysorbate 80 0 % v/v, read-out: Solubility in Liquid 5.

With `C#C[C@]1(O)CC[C@H]2[C@@H]3CCC4=CC(=O)CC[C@@H]4[C@H]3C(=C)C[C@@]21CC` [Etonogestrel, 13-ethyl-11methylene-17β-hydroxy-18,19-dinor-17α-pregnen-3-one], the oral bioavailability entry in series [1] was “about 80%”. In series [2], the “levels of etonogestrel (in serum) compared to oral ingestion of an equivalent amount of desogestrel using a tablet” value is recorded as “much higher levels”. The solubility was 5500 µg/mL (≈ 17 mM) in series [3] (setting [5]); 5800 µg/mL (≈ 17.9 mM) in series [3] (setting [6]); 7300 µg/mL (≈ 22.5 mM) in series [3] (setting [7]); 4200 µg/mL (≈ 12.9 mM) in series [3] (setting [8]); 3400 µg/mL (≈ 10.5 mM) in series [3] (setting [9]). Moreover, in series [4], the “levels of etonogestrel (in serum) compared to oral ingestion of equivalent amounts using a tablet” value is on record as “much higher levels”.

In the case of `C#C[C@]1(O)CC[C@H]2[C@@H]3CCc4cc(O)ccc4[C@H]3CC[C@@]21C` [Ethinyl Estradiol], the solubility in series [3] (setting [5]) was at least 10900 µg/mL; in series [3] (setting [6]), at least 10800 µg/mL; in series [3] (setting [7]), at least 14100 µg/mL; in series [3] (setting [8]), 11200 µg/mL (≈ 37.8 mM); in series [3] (setting [9]) it was 12400 µg/mL (≈ 41.8 mM). Also, in series [4], the “levels of ethinyl estradiol (in plasma) compared to oral ingestion of equivalent amounts using a tablet” value is given as “much higher levels”.

As to `C#C[C@]1(O)CC[C@H]2[C@@H]3CCC4=CCCC[C@@H]4[C@H]3C(=C)C[C@@]21CC` [Desogestrel], the solubility in series [3] (setting [5]) turned out to be 11300 µg/mL (≈ 36.4 mM); in series [3] (setting [6]), 12400 µg/mL (≈ 39.9 mM); in series [3] (setting [7]) it was 13400 µg/mL (≈ 43.2 mM); in series [3] (setting [8]), 2100 µg/mL (≈ 6.76 mM); in series [3] (setting [9]) it was 1500 µg/mL (≈ 4.83 mM).

With `C#C[C@]1(O)CC[C@H]2[C@@H]3CCC4=C[C@@H](O)CC[C@@H]4[C@H]3C(=C)C[C@@]21CC` [3-β-Hydroxy-desogestrel], in series [3], the “Solubility in Liquid 1” value is “≧8.8 mg/mL”, the “Solubility in Liquid 2” value is “≧7.0 mg/mL”, the “Solubility in Liquid 3” value is “≧6.1 mg/mL” and the “Solubility in Liquid 4” value is recorded as “≧6.9 mg/mL”. Also, the “Solubility in Liquid 5” value in series [3] is “≧8.7 mg/mL”.
